According to patent US6956040B2, “Oxazolidinone piperazinyl derivatives as potential antimicrobials” (Ranbaxy Laboratories Limited, priority 2001, dated 2005):
Values after ≈ are worked out from the molar mass of the structure shown.

Assays:
[1] = tested on: S. pneum 6303; assay: MIC, agar incorporation method; type: cell-based, Streptococcus pneumoniae; conditions: S. pneum 6303; agar incorporation
Text: (§1) The compounds of the invention display antibacterial activity when tested by the agar incorporation method. The following minimum inhibitory concentrations (μg/ml) were obtained for representative compounds of the invention which are given below in the following tables.
(§2) • 1) S.aureus ATCC 25923—Staphylococus aureus ATCC 25923 • 2) MRSA 15187—Methicillin Resistant Staphylococcus aureus • 3) Ent. faecalis ATCC 29212—Enterococcus faecalis ATCC 29212 • 4) Ent. faecium 6A—Enterococcus faecium 6A Van®, Cipro® • 5) Strep. pne. ATCC 6303—Streptococcus pneumoniae ATCC 6303 • 6) Strep. pyog. ATCC 19615—Streptococcus pyogenes • 7) S. epidermidis—Staphylococcus epidermidis ATCC 12228
(§3) Briefly, the compounds were dissolved in DMSO and doubling dilution of the compounds were incorporated into Meuller Hilton agar before solidification. Inoculum was prepared by suspending 4 to 5 colonies into 5 ml of normal saline solution and adjusting the turbidity to 0.5 Macfarland turbidity standard tables (1.5×10^8 CFU/ml), after appropriate dilutions, 10^4 CFU/spot was transfered into the surface of dried plate and incubated for 18 hours (24 hours for MRSN studies). The concentration showing no growth of the inoculated culture was recorded as the MIC. Appropriate ATCC standard strains were simultaneously tested and result recorded only when the MIC's against standard antibiotics were within the acceptable range.

[2] = tested on: S. pyogenes 19615; assay: MIC, agar incorporation method; type: cell-based, Streptococcus pyogenes; conditions: S. pyogenes 19615; agar incorporation
Text: as §1, §2, §3

[3] = tested on: E. faecalis 29212; assay: MIC, agar incorporation method; type: cell-based, Enterococcus faecalis; conditions: E. faecalis 29212; agar incorporation
Text: as §1, §2, §3

[4] = tested on: S. pneum AB 34; assay: MIC, agar incorporation method; type: cell-based, Streptococcus pneumoniae; conditions: S. pneum AB 34; agar incorporation
Method: as §1, §3

[5] = tested on: VRE 6A; assay: MIC, agar incorporation method; type: cell-based, Enterococcus faecium; conditions: VRE 6A; agar incorporation
Text: as §1, §2, §3

[6] = tested on: MRSA 562; assay: MIC, agar incorporation method; type: cell-based, Staphylococcus aureus; conditions: MRSA 562
Method: as §1, §3

[7] = tested on: MRSA 33; assay: MIC, agar incorporation method; type: cell-based, Staphylococcus aureus; conditions: MRSA 33; agar incorporation
Method: as §1, §3

[8] = tested on: S. aureus 25923; assay: MIC, agar incorporation method; type: cell-based, Staphylococcus aureus; conditions: S. aureus 25923; agar incorporation
Text: as §1, §2, §3

[9] = tested on: MRSA 15187; assay: MIC, agar incorporation method; type: cell-based, Staphylococcus aureus; conditions: MRSA 15187; agar incorporation
Text: as §1, §2, §3

[10] = tested on: S. aureus; assay: Summary of in vitro activity (MIC) against S. aureus; type: cell-based, Staphylococcus aureus; conditions: S. aureus; for MIC50 / MIC90: Number 8
Method: as §1, §3

[11] = tested on: E. faecalis; assay: Summary of in vitro activity (MIC) against E. faecalis; type: cell-based, Enterococcus faecalis; conditions: E. faecalis; for MIC50 / MIC90: Number 7
Method: as §1, §3

[12] = tested on: G+ve; assay: Summary of in vitro activity (MIC) against G+ve bacteria; type: cell-based; conditions: for MIC50 / MIC90: G+ve, Number 49; for Geometric Mean of in vitro activity (MIC): Gram +ve
Method: as §1, §3

[13] = tested on: S. pneumoniae; assay: Summary of in vitro activity (MIC) against S. pneumoniae; type: cell-based, Streptococcus pneumoniae; conditions: S. pneumoniae; for MIC50 / MIC90: Number 19
Method: as §1, §3

[14] = tested on: MRSA 562; assay: In vivo activity against MRSA 562 (ED50); set-up: species or system Staphylococcus aureus

In the case of CC(=O)NC[C@H]1CN(c2ccc(N3C[C@@H]4[C@@H](CN(C)Cc5ccc([N+](=O)[O-])s5)[C@@H]4C3)c(F)c2)C(=O)O1 [Compound No. 39, (S)-N-[[3-[3-Fluorol[4-[3-(1α,5α,6α)-6-[N-(5-nitro-2-thienyl-methyl)-N-methyl]aminomethyl]-3-azabicyclo-[3.1.0]hexane]phenyl]-2-oxo-5-oxazolidinyl]methyl]acetamide], the MIC [1] is reported as 0.5 µg/mL (≈ 0.966 µM), the MIC [2] is reported as 0.5 µg/mL (≈ 0.966 µM) and the MIC [3] is reported as 2 µg/mL (≈ 3.86 µM). The MIC [4] was 0.5 µg/mL (≈ 0.966 µM), the MIC [5] was 8 µg/mL (≈ 15.5 µM) and the MIC ([6]; agar incorporation, Table 1) was 8 µg/mL (≈ 15.5 µM). The MIC [7] was 4 µg/mL (≈ 7.73 µM), the MIC [8] was 8 µg/mL (≈ 15.5 µM) and the MIC [9] was 8 µg/mL (≈ 15.5 µM).

For CC(=O)NC[C@H]1CN(c2ccc(N3CC4C(CN(C)Cc5ccc([N+](=O)[O-])o5)C4C3)c(F)c2)C(=O)O1 (stereo partly drawn) [Compound No. 40, (S)-N-[[3-[3-Fluoro[4-[3-(1α,5α,6α)-6-[N-(5-nitro-2-furylmethyl)-N-methyl]aminomethyl]-3-azabicyclo-[3.1.0]hexane]phenyl]-2-oxo-5-oxazolidinyl]methyl]acetamide], the “Geometric Mean of in vitro activity (MIC)” value (from here on “Geometric Mean”) [10] was 1.83 µg/mL, the MIC50 [10] was 2 µg/mL (≈ 3.99 µM) and the MIC90 [10] was 4 µg/mL (≈ 7.98 µM). The “Geometric Mean” value [11] was 2.38 µg/mL, the MIC50 [11] was 2 µg/mL (≈ 3.99 µM) and the MIC90 [11] was 4 µg/mL (≈ 7.98 µM). The MIC50 [12] was 1 µg/mL (≈ 1.99 µM), the MIC90 [12] was 2 µg/mL (≈ 3.99 µM) and the “Geometric Mean” value [12] was 0.93 µg/mL. The “Geometric Mean” value [13] was 0.71 µg/mL, the MIC50 [13] was 1 µg/mL (≈ 1.99 µM) and the MIC90 [13] was 1 µg/mL (≈ 1.99 µM). For the same molecule, the MIC [2] was 0.125 µg/mL (≈ 0.249 µM), the MIC [3] was 2 µg/mL (≈ 3.99 µM) and the MIC [4] was 2 µg/mL (≈ 3.99 µM). The MIC [5] was 4 µg/mL (≈ 7.98 µM), the MIC ([6]; agar incorporation, Table 1) was 1 µg/mL (≈ 1.99 µM) and the MIC [7] was 2 µg/mL (≈ 3.99 µM). For the same molecule, the MIC [8] was 2 µg/mL (≈ 3.99 µM) and the MIC [9] was 2 µg/mL (≈ 3.99 µM).

In the case of CC(=O)NC[C@H]1CN(c2ccc(N3CCC(N(C)Cc4ccc([N+](=O)[O-])o4)CC3)c(F)c2)C(=O)O1 [Compound No. 50, (S)-N-[[3-[4-[4-(N-methyl-N-2-furyl(5-nitro)methyl)-aminopiperidine-1-yl]-3-fluorophenyl]-2oxo-oxazolidin-5-yl]methyl]acetamide], the “Geometric Mean” value [10] is reported as 1 µg/mL, the MIC50 [10] is reported as 1 µg/mL (≈ 2.04 µM) and the MIC90 [10] is reported as 2 µg/mL (≈ 4.09 µM). The “Geometric Mean” value [11] was 0.42 µg/mL, the MIC50 [11] was 0.5 µg/mL (≈ 1.02 µM) and the MIC90 [11] was 1 µg/mL (≈ 2.04 µM). The MIC50 [12] was 1 µg/mL (≈ 2.04 µM), the MIC90 [12] was 2 µg/mL (≈ 4.09 µM) and the “Geometric Mean” value [12] was 0.72 µg/mL. The “Geometric Mean” value [13] was 1.41 µg/mL, the MIC50 [13] was 1 µg/mL (≈ 2.04 µM) and the MIC90 [13] was 2 µg/mL (≈ 4.09 µM). It also gave an MIC [1] of 0.5 µg/mL (≈ 1.02 µM), an MIC [2] of 0.125 µg/mL (≈ 0.255 µM) and an MIC [3] of 0.5 µg/mL (≈ 1.02 µM). For the same molecule, the MIC [4] was 2 µg/mL (≈ 4.09 µM), the MIC [5] was 0.25 µg/mL (≈ 0.511 µM) and the “MIC” value ([6]; Table 5) was 0.5 µg/mL (≈ 1.02 µM). It also gave an MIC ([6]; agar incorporation, Table 1) of 0.5 µg/mL (≈ 1.02 µM), an MIC [7] of 1 µg/mL (≈ 2.04 µM) and an MIC [8] of 1 µg/mL (≈ 2.04 µM). The MIC [9] was 1 µg/mL (≈ 2.04 µM).

Molecule CC(=O)NC[C@H]1CN(c2ccc(N3CCN(Cc4ccc(C=NN)o4)CC3)c(F)c2)C(=O)O1 [Compound No. 62, (S)-N-[[3-[3-Fluoro-4[N-1-[4-{2-furyl-(5-hydrazone)-methyl}]-piperazinyl]-phenyl]-2-oxo-5-oxazolidinyl]-methyl]acetamide] has an MIC [1] of 8 µg/mL (≈ 17.4 µM), an MIC [2] of 8 µg/mL (≈ 17.4 µM) and an MIC [3] of 8 µg/mL (≈ 17.4 µM). The MIC [4] was 8 µg/mL (≈ 17.4 µM), the MIC [5] was 8 µg/mL (≈ 17.4 µM) and the MIC ([6]; agar incorporation, Table 1) was 1 µg/mL (≈ 2.18 µM). It also gave an MIC [7] of 2 µg/mL (≈ 4.36 µM), an MIC [8] of 2 µg/mL (≈ 4.36 µM) and an MIC [9] of 2 µg/mL (≈ 4.36 µM).

With CC(=O)NC[C@H]1CN(c2ccc(N3CCN(Cc4ccc(C5OCCCO5)o4)CC3)c(F)c2)C(=O)O1 [Compound No. 66] the MIC [1] was 8 µg/mL (≈ 15.9 µM), the MIC [2] was 8 µg/mL (≈ 15.9 µM) and the MIC [3] was 16 µg/mL (≈ 31.8 µM). For the same molecule, the MIC [4] was 8 µg/mL (≈ 15.9 µM), the MIC [5] was 16 µg/mL (≈ 31.8 µM) and the MIC ([6]; agar incorporation, Table 1) was 2 µg/mL (≈ 3.98 µM). For the same molecule, the MIC [7] was 2 µg/mL (≈ 3.98 µM), the MIC [8] was 2 µg/mL (≈ 3.98 µM) and the MIC [9] was 2 µg/mL (≈ 3.98 µM).

For CC(=O)NC[C@H]1CN(c2ccc(N3CCN(Cc4ccc(NC=O)o4)CC3)c(F)c2)C(=O)O1 [Compound No. 67], the “ED50 (mg/kg body weight) PO” value [14] was >25 mg/kg body weight and the “MIC” value ([6]; Table 5) was 2 µg/mL (≈ 4.35 µM).

In the case of CC1(C)S[C@@H]2[C@H](NC(=O)Cc3ccccc3)C(=O)N2[C@H]1C(=O)O [Penicillin G, reference compound], the MIC50 [12] is reported as 4 µg/mL (≈ 12 µM), the MIC90 [12] is reported as 32 µg/mL (≈ 95.7 µM) and the “Geometric Mean” value [12] is reported as 0.76 µg/mL. The “Geometric Mean” value [13] was 2.16 µg/mL, the MIC50 [13] was 4 µg/mL (≈ 12 µM) and the MIC90 [13] was 32 µg/mL (≈ 95.7 µM).
